Laboratory results: patent US9023789B2, “Amylin analogs and pharmaceutical compositions thereof” (Novo Nordisk A/S, priority 2012, dated 2015)
Read-outs that look alike come from different tables or passages of the source. Numbered stars: 1 amine (or outer) side, 2 acyl side, 3 side chain; on linkers, the order of the positions; unused ones are H or OH. Bridge positions count the residues as written; N and C are the ends. Side chains are listed from the residue outwards. Peptide text beside a SMILES is read from it. * marks the point of attachment. C20 diacid = O=C(O)CCCCCCCCCCCCCCCCCCC(=O)*; γGlu = O=C(O)[C@H](CCC(=O)[*:2])N[*:1]; AEEA = NCCOCCOCC(=O)O

Legend:
[1] = ASSAY (IV) determination of solubility; type: physicochemical
In short: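 UPLC read-out of polypeptide concentration after centrifugation. Samples: aqueous polypeptide stock ([…]) + 100 mM buffer 1:1, glycylglycine pH 3.0–5.0 or bistrispropane pH 6.0–8.0; 18 h, RT.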

[2] = molecular target: T1, human amylin receptor (membranes from Amylin 3(a)/CRE-luc cells) (Homo sapiens, UniProt O60896+P30988); experiment: ASSAY (V) binding to the human amylin receptor (SPA, 125I-rat amylin); details: for IC50: Table 4, read-out: hAmylin-R bind IC50;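 on all read-outs here: competition binding of cell membranes (35 ng/µL) mixed with SPA beads in 384-well plates at 40 µL total volume, read by scintillation counting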
T1 construct: expressed in transfected cells
T1 sequence (P30988 25-474): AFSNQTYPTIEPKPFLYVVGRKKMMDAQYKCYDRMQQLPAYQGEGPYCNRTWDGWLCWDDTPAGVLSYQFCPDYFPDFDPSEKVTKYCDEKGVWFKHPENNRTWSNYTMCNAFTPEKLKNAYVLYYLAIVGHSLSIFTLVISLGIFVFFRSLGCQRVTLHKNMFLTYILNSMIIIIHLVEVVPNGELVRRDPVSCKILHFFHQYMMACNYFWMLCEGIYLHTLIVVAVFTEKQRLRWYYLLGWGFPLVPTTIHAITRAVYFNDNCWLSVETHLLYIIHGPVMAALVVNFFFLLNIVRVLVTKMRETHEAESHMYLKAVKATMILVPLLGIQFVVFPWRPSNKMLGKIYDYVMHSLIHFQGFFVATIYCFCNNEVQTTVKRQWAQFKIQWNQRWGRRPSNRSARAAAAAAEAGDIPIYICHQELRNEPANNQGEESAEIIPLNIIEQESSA
T1 sequence (O60896 24-148 partner): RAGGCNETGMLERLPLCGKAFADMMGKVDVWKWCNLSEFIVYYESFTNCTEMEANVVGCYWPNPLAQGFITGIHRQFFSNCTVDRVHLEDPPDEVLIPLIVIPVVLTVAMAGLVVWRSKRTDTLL

[3] = molecular target: T2, rat amylin receptor (rat calcitonin receptor + rat RAMP 3) (Rattus norvegicus, UniProt P32214+Q9JJ73); experiment: ASSAY (VI) binding to the rat amylin receptor
T2 construct: expressed in transfected cells; host or cells: BHK tk'ts 13 (transient, FuGENE 6), membranes
T2 sequence (P32214 25-479 isoform P32214-2 limits assumed): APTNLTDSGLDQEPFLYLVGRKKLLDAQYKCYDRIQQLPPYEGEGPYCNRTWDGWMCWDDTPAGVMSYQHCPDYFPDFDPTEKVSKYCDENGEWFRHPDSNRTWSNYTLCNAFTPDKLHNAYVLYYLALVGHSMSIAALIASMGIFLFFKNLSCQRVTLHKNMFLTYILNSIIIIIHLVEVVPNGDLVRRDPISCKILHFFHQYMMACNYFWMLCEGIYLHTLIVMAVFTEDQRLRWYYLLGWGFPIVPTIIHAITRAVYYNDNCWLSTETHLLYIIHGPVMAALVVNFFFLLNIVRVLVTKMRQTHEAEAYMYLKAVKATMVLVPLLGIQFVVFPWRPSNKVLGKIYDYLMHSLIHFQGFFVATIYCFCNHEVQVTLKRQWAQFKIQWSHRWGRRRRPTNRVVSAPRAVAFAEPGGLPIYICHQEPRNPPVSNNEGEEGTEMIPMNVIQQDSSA
T2 sequence (Q9JJ73 23-147 partner): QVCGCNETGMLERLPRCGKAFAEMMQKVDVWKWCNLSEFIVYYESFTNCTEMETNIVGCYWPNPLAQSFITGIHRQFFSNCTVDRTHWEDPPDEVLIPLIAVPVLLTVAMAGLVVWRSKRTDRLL
In short: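 The cell-membrane assay assessed binding at the rat amylin receptor. BHK tk′ts 13 cells were transfected transiently with rat calcitonin receptor, with FuGENE® 6 (Roche) as the transfection reagent, used per the manufacturer's recommendations. Approximately 48 hours after transfection the cells were harvested, and membranes were prepared for measuring binding.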

[4] = molecular target: T3, rat calcitonin receptor (Rattus norvegicus, UniProt P32214); experiment: ASSAY (VIII) binding to the rat calcitonin receptor; details: Table 7, read-out: rCTR bind IC50
T3 construct: expressed in transfected cells; host or cells: BHK tk'ts 13 (transient, FuGENE 6), membranes
T3 sequence (P32214 25-479 isoform P32214-2 limits assumed): T2 sequence (P32214 25-479 isoform P32214-2 limits assumed)
In short: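 Receptor source: membranes from transiently transfected BHK tk′ts 13 cells expressing rat calcitonin receptor, collected roughly 48 hours after transfection.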

[5] = Table 5, selectivity, hCTR bind IC50 / hAmylin-R bind IC50
[6] = Table 5a, selectivity, hCTR bind IC50 / hAmylin-R bind IC50
[7] = Table 5b, selectivity, hCTR bind IC50 / hAmylin-R bind IC50
[8] = Table 5c, selectivity, hCTR bind IC50 / hAmylin-R bind IC50
[9] = Table 7, human binding selectivity, included for comparison
[10] = Table 7a (preferred compounds), human binding selectivity, included for comparison
[11] = ratio of human calcitonin receptor binding IC50 to human amylin receptor binding IC50
[12] = Table 7, rat binding selectivity, rCTR IC50 / rAmylin-R IC50
[13] = Table 7a (preferred compounds), rat binding selectivity, rCTR IC50 / rAmylin-R IC50
[14] = ratio of rCTR bind IC50 to rAmylin-R bind IC50
[15] = bistrispropane buffer, pH 6.5, read-out: Solubility pH 6.5 Concentration
[16] = bistrispropane buffer, pH 7.5, read-out: Solubility pH 7.5 Concentration
[17] = bistrispropane buffer, pH 6.0, read-out: Solubility pH 6.0 Concentration
[18] = bistrispropane buffer, pH 7.0, read-out: Solubility pH 7.0 Concentration
[19] = bistrispropane buffer, pH 8.0, read-out: Solubility pH 8.0 Concentration
[20] = glycylglycine buffer, pH 3.0, read-out: Solubility pH 3.0 Concentration
[21] = glycylglycine buffer, pH 4.0, read-out: Solubility pH 4.0 Concentration
[22] = glycylglycine buffer, pH 5.0, read-out: Solubility pH 5.0 Concentration
[23] = Table 7, binding to rat amylin receptor, read-out: rAmylin-R bind IC50

CC[C@H](C)[C@H](NC(=O)[C@H](C)NC(=O)CNC(=O)[C@H](Cc1ccccc1)NC(=O)[C@H](CC(N)=O)NC(=O)[C@@H]1CCCN1C(=O)[C@H](CO)NC(=O)[C@H](CO)NC(=O)[C@H](Cc1c[nH]cn1)NC(=O)[C@H](CCCNC(=N)N)NC(=O)[C@H](CC(C)C)NC(=O)[C@H](Cc1ccccc1)NC(=O)[C@H](CO)NC(=O)[C@H](C)NC(=O)[C@H](CC(C)C)NC(=O)[C@H](CCCNC(=N)N)NC(=O)[C@H](CCC(N)=O)NC(=O)[C@@H](NC(=O)[C@H](C)NC(=O)[C@@H]1CSSC[C@H](NC(=O)[C@@H](N)CCCCNC(=O)COCCOCCNC(=O)CC[C@H](NC(=O)CCCCCCCCCCCCCCCCCCC(=O)O)C(=O)O)C(=O)N[C@@H](CC(N)=O)C(=O)N[C@@H]([C@@H](C)O)C(=O)N[C@@H](C)C(=O)N[C@@H]([C@@H](C)O)C(=O)N1)[C@@H](C)O)C(=O)N1CCC[C@H]1C(=O)N[C@@H](CO)C(=O)N[C@@H](CO)C(=O)N[C@H](C(=O)N1CCC[C@H]1C(=O)N[C@H](C(=O)NCC(=O)N[C@@H](CO)C(=O)N[C@@H](CC(N)=O)C(=O)N[C@H](C(=O)N[C@@H](Cc1ccc(O)cc1)C(N)=O)[C@@H](C)O)C(C)C)[C@@H](C)O [Example 73] (H-K([AEEA-γGlu-C20 diacid])CNTATCATQRLASFLRHSSPNFGAIPSSTPVGSNTY-NH2; disulfide 2-7 (inferred))
≥ 200 µM: solubility at 18 h ([1]; pH 3.0, read-out: Solubility pH 3.0 Concentration) | solubility at 18 h ([1]; pH 4.0, read-out: Solubility pH 4.0 Concentration) | solubility at 18 h ([1]; pH 5.0, read-out: Solubility pH 5.0 Concentration) | solubility at 18 h ([1]; pH 6.0, read-out: Solubility pH 6.0 Concentration) | solubility at 18 h ([1]; pH 6.5, read-out: Solubility pH 6.5 Concentration) | solubility at 18 h ([1]; pH 7.0, read-out: Solubility pH 7.0 Concentration) | solubility at 18 h ([1]; pH 7.5, read-out: Solubility pH 7.5 Concentration)
0.283 nM: IC50 [3]
50.3 nM: IC50 [4]
177.7: Ratio rCT/rAmylin binding [3, 12] | Ratio rCT/rAmylin binding [3, 13] | Ratio rCT/rAmylin binding [3, 14]
51.7: Ratio hCT/hAmylin binding [2, 5] | Ratio hCT/hAmylin binding [2, 6] | Ratio hCT/hAmylin binding [2, 7] | Ratio hCT/hAmylin binding [2, 8] | Ratio hCT/hAmylin binding [2, 9] | Ratio hCT/hAmylin binding [2, 10] | Ratio hCT/hAmylin binding [2, 11]
172 µM: solubility at 18 h ([1]; pH 8.0, read-out: Solubility pH 8.0 Concentration)

CC[C@H](C)[C@H](NC(=O)[C@H](C)NC(=O)CNC(=O)[C@H](Cc1ccccc1)NC(=O)[C@H](CC(N)=O)NC(=O)[C@@H]1CCCN1C(=O)[C@H](CO)NC(=O)[C@H](CO)NC(=O)[C@H](Cc1c[nH]cn1)NC(=O)[C@H](CCCNC(=N)N)NC(=O)[C@H](CC(C)C)NC(=O)[C@H](Cc1ccccc1)NC(=O)[C@@H](NC(=O)[C@H](C)NC(=O)[C@H](CC(C)C)NC(=O)[C@H](CCCNC(=N)N)NC(=O)[C@H](CCC(N)=O)NC(=O)[C@@H](NC(=O)[C@H](C)NC(=O)[C@@H]1CSSC[C@H](NC(=O)[C@@H](N)CCCCNC(=O)COCCOCCNC(=O)CC[C@H](NC(=O)CCCCCCCCCCCCCCCCCCC(=O)O)C(=O)O)C(=O)N[C@@H](CC(N)=O)C(=O)N[C@@H]([C@@H](C)O)C(=O)N[C@@H](C)C(=O)N[C@@H]([C@@H](C)O)C(=O)N1)[C@@H](C)O)[C@@H](C)O)C(=O)N1CCC[C@H]1C(=O)N[C@@H](CO)C(=O)N[C@@H](CO)C(=O)N[C@H](C(=O)N1CCC[C@H]1C(=O)N[C@H](C(=O)NCC(=O)N[C@@H](CO)C(=O)N[C@@H](CC(N)=O)C(=O)N[C@H](C(=O)N[C@@H](Cc1ccc(O)cc1)C(N)=O)[C@@H](C)O)C(C)C)[C@@H](C)O [Example 75] (H-K([AEEA-γGlu-C20 diacid])CNTATCATQRLATFLRHSSPNFGAIPSSTPVGSNTY-NH2; disulfide 2-7 (inferred); N-terminus assumed)
0.666 nM: IC50 [2]
193 µM: solubility at 18 h [1, 16]
4.03 nM: IC50 [3, 23]
109.8: Ratio rCT/rAmylin binding [3, 12] | Ratio rCT/rAmylin binding [3, 13] | Ratio rCT/rAmylin binding [3, 14]
442 nM: IC50 [4]
150 µM: solubility at 18 h [1, 19]
91.4: Ratio hCT/hAmylin binding [2, 5] | Ratio hCT/hAmylin binding [2, 6] | Ratio hCT/hAmylin binding [2, 7] | Ratio hCT/hAmylin binding [2, 8] | Ratio hCT/hAmylin binding [2, 9] | Ratio hCT/hAmylin binding [2, 10] | Ratio hCT/hAmylin binding [2, 11]
≥ 200 µM: solubility at 18 h [1, 15] | solubility at 18 h [1, 17] | solubility at 18 h [1, 18] | solubility at 18 h [1, 20] | solubility at 18 h [1, 21] | solubility at 18 h [1, 22]

CC[C@H](C)[C@H](NC(=O)[C@H](C)NC(=O)CNC(=O)[C@H](Cc1ccccc1)NC(=O)[C@H](CC(N)=O)NC(=O)[C@@H]1CCCN1C(=O)[C@H](CO)NC(=O)[C@H](CO)NC(=O)[C@H](Cc1c[nH]cn1)NC(=O)[C@H](CCCNC(=N)N)NC(=O)[C@H](CC(C)C)NC(=O)[C@H](Cc1ccccc1)NC(=O)[C@H](CC(N)=O)NC(=O)[C@H](C)NC(=O)[C@H](CC(C)C)NC(=O)[C@H](CCCNC(=N)N)NC(=O)[C@H](CCC(N)=O)NC(=O)[C@@H](NC(=O)[C@H](C)NC(=O)[C@@H]1CSSC[C@H](NC(=O)[C@@H](N)CCCCNC(=O)COCCOCCNC(=O)CC[C@H](NC(=O)CCCCCCCCCCCCCCCCCCC(=O)O)C(=O)O)C(=O)N[C@@H](CC(N)=O)C(=O)N[C@@H]([C@@H](C)O)C(=O)N[C@@H](C)C(=O)N[C@@H]([C@@H](C)O)C(=O)N1)[C@@H](C)O)C(=O)N1CCC[C@H]1C(=O)N[C@@H](CO)C(=O)N[C@@H](CO)C(=O)N[C@H](C(=O)N[C@@H](CC(N)=O)C(=O)N[C@H](C(=O)NCC(=O)N[C@@H](CCCNC(=N)N)C(=O)N[C@@H](CC(N)=O)C(=O)N[C@H](C(=O)N[C@@H](Cc1ccc(O)cc1)C(N)=O)[C@@H](C)O)C(C)C)[C@@H](C)O [Example 78] (H-K([AEEA-γGlu-C20 diacid])CNTATCATQRLANFLRHSSPNFGAIPSSTNVGRNTY-NH2; disulfide 2-7 (inferred))
1.3 nM: IC50 [3, 23]
0.602 nM: IC50 [2]
60.7: Ratio hCT/hAmylin binding [2, 5] | Ratio hCT/hAmylin binding [2, 6] | Ratio hCT/hAmylin binding [2, 7] | Ratio hCT/hAmylin binding [2, 8] | Ratio hCT/hAmylin binding [2, 9] | Ratio hCT/hAmylin binding [2, 10] | Ratio hCT/hAmylin binding [2, 11]
90.6 nM: IC50 [4]
≥ 200 µM: solubility at 18 h [1, 15] | solubility at 18 h [1, 16] | solubility at 18 h [1, 17] | solubility at 18 h [1, 18] | solubility at 18 h [1, 19] | solubility at 18 h [1, 20] | solubility at 18 h [1, 21] | solubility at 18 h [1, 22]
69.9: Ratio rCT/rAmylin binding [3, 12] | Ratio rCT/rAmylin binding [3, 13] | Ratio rCT/rAmylin binding [3, 14]
